Data set [1] can be described thus: Half life in monkey. Format: ADME, organism-based, Macaca mulatta. The following applies: rhesus monkey, in vivo.
Data set [2] in a line: Lipophilicity, log D of the compound at pH 7.4. The class given is physicochemical. The following applies: buffer.
Data set [3] in a line: Drug metabolism in human. Format: ADME, organism-based. As to conditions: in vivo, read-out: Drug metabolism.
The next data set concerns the target Prothrombin (Homo sapiens, UniProt P00734). Put plainly: Inhibition of thrombin (unknown origin).
In the next data set the target is Trypsin (Homo sapiens, UniProt P07477+P07478+P35030). Briefly: Inhibition of trypsin (unknown origin). The class given is protein assay.
Data set [4] in a line: Half life in rat. The following applies: in vivo. Format: ADME, organism-based.
Data set [5] in a line: Half life in human plasma at 600 mg, po. Format: ADME, organism-based.
Data set [6] relates to Homo sapiens. Put plainly: In vivo inhibition of CYP2D6 in patient at 20 mg, qd relative to control. Format: ADME, organism-based.
The nature of data set [7]: Drug metabolism in rat liver microsomes assessed as oxidative deamination. Format: ADME. As to conditions: read-out: Drug metabolism. (In general: Liver microsomes are a subcellular fraction often used to study metabolism.)
A short description of data set [8]: Drug metabolism in rat liver microsomes assessed as O-demethylation. Format: ADME. The following applies: read-out: Drug metabolism.
The nature of data set [9]: Drug metabolism in rat liver microsomes assessed as N-demethylation. Format: ADME. The following applies: read-out: Drug metabolism.
Data set [10] has as its system Homo sapiens. Briefly: In vivo inhibition of CYP2D6 in patient assessed as inhibition of dextromethorphan to dextrorphan conversion at 20 to 40 mg, qd relative to control. Format: ADME, organism-based.

In [1], `C[C@H](C#Cc1ccc(Oc2ccc(F)cc2)o1)N(O)C(N)=O` had a half-life of 7.4 h.

In [1], `CC(c1ccoc1)N(O)C(N)=O` (stereo not drawn) showed a half-life of 3.1 h.

In [2], `CNS(=O)(=O)Cc1ccc2[nH]cc(CCN(C)C)c2c1` registered a logD of -1.7.

As to `[3H]C([3H])([3H])Oc1ccc(C(CN(C([3H])([3H])[3H])C([3H])([3H])[3H])C2(O)CCCCC2)cc1` (stereo not drawn), the metabolised in [3] is 50%.

For the molecule `N#Cc1cnc(NCC(F)(F)c2ccccn2)c(=O)n1CC(=O)NCc1ncccc1F`, the IC50 at Prothrombin turned out to be 2.3 nM; on Trypsin, 213 nM.

At Trypsin, `Cc1cnc(NCC(F)(F)c2ccccn2)c(=O)n1CC(=O)NCc1ncccc1F` registered an IC50 of 252 nM.

As for `CS(=O)(=O)c1ccc(-n2nc(C(F)(F)F)cc2-c2ccc(F)cc2)cc1` [SC-58125], the half-life in [4] is more than 220 h.

For the molecule `CC(c1cc2ccccc2s1)N(O)C(N)=O` (stereo not drawn) [ZILEUTON], the half-life was less than 1 h in data set [1] and 3 h in [5].

For `Cc1nc(N)ccc1CNC(=O)Cn1c(C)cnc(NCCc2ccccc2)c1=O` [L-375378], the IC50 on Prothrombin stood at 0.8 nM; against Trypsin, 1800 nM.

Take `Fc1ccc([C@@H]2CCNC[C@H]2COc2ccc3c(c2)OCO3)cc1` [PAROXETINE]: the “inhibition (INH)” value in the data set with Homo sapiens [6] stood at 55%.

Take `COc1ccc([C@H]2Cc3c(cccc3C(F)(F)F)N(CCN(C)C)C(=O)[C@H]2OC(C)=O)cc1`: the metabolised in data set [7] is 53%; in data set [8], 8%; in [9] it was 31%.

Consider `[3H]C1([3H])Oc2ccc(OC[C@@H]3CNCC[C@H]3c3ccc(F)cc3)cc2O1`, for which the “inhibition (INH)” value in the data set with Homo sapiens [10] is reported as 15%.

`Cc1nc(N)ccc1CNC(=O)Cn1c(C)cnc(NCC(F)(F)c2ccccn2)c1=O` came in with an IC50 against Trypsin of 800 nM.

One may read the half-life as the time in which the quantity being followed falls by half. In general, logD refers to the decadic logarithm of the distribution of all forms, ionised or not, between an organic phase and buffer at a given pH. The term IC50 denotes the point on the concentration scale where inhibition reaches its midpoint.

The values above are taken from ChEMBL document CHEMBL3132812, “Metabolism-guided drug design” (Medchemcomm, 2013).
